Reference: patent publication EP4610269A1, “UROKINASE PLASMINOGEN ACTIVATOR SURFACE RECEPTOR (UPAR) LIGANDS FOR DIAGNOSTIC OR THERAPEUTIC USE” (3B Pharmaceuticals GmbH, priority 2024, dated 2025)
Where a SMILES comes first, the peptide text is derived from it. Bridges are numbered along the chain shown (N, C = ends). [ ]: non-standard residue; d: D form. The star is where a group is joined. DOTA = O=C(O)CN1CCN(CC(=O)O)CCN(CC(=O)*)CCN(CC(=O)O)CC1; Phe(4-CONH2) = NC(=O)c1ccc(C[C@H](N)C(=O)O)cc1; Pro(cis-4-F) = O=C(O)[C@@H]1C[C@H](F)CN1; Hyp = O=C(O)[C@@H]1C[C@@H](O)CN1; Butoxycarbonyl = CCCCOC(=O)*; Orn = NCCC[C@H](N)C(=O)O; Nva = CCC[C@H](N)C(=O)O

How the values were obtained:
[1] = biological target: T1, human uPAR (uPAR-Fc) (Homo sapiens, UniProt Q03405); assay: Surface plasmon resonance (SPR) assay, single cycle kinetics; format: binding; conditions: pKD category for uPAR SPR activity assay; uPAR-Fc on Protein A-Chip, 25°C; read-out: pKD CAT (converted)
T1 construct: comprising amino acids Leu23-Arg303 according to UniProt entry Q03405.1; purchased R&D Systems 10378-UK-100
T1 sequence (Q03405 23-303): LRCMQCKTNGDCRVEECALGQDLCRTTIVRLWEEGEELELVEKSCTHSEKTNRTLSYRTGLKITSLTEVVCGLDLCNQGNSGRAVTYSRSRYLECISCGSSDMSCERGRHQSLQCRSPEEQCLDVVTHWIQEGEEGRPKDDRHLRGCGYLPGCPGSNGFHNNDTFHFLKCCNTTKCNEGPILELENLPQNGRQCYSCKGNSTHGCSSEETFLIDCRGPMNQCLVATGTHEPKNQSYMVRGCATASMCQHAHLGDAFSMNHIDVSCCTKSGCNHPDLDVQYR
In short: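 uPAR-Fc (Leu23-Arg303 extracellular domains, human IgG1 Fc) captured on Protein A chip to ~2000 RU; single-cycle kinetics at 25°C in HEPES running buffer pH 7.4 with 0.1% DMSO. KD from double-referenced sensorgrams fitted to 1:1 Langmuir model, reported as pKD.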

[2] = Plasma stability assay (mouse plasma); format: in vitro ADME; conditions: mouse plasma (sodium citrate 3.7%), 37°C, LC-MS quantification, read-out: % intact compound remaining after 6h incubation Mouse plasma
In short: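 Compound from a 0.5 mM DMSO stock was spiked into sodium-citrate human or mouse plasma and incubated at 37°C for 0 and 6 h in duplicate. After protein precipitation with internal standard, intact compound was quantified by UHPLC-Q-TOF MS (positive ESI) against matrix calibration, reported as % remaining after 6 h.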

[3] = Plasma stability assay (human plasma); format: in vitro ADME; conditions: human plasma (sodium citrate 3.7%), 37°C, LC-MS quantification, read-out: % intact compound remaining after 6h incubation Human plasma
Experimental: In order to determine the stability of selected compounds of the invention in human and mouse plasma, a plasma stability assay was carried out. Such plasma stability assay measures degradation of compounds of the present invention in blood plasma. This is an important characteristic of a compound as compounds, with the exception of pro-drugs, which rapidly degrade in plasma, generally show poor in vivo efficacy. […] The stability is sufficient for the diagnostic, therapeutic and theragnostic use of these compounds according to the present invention.
The plasma stability samples were prepared by spiking 50 µl plasma aliquots (all sodium citrate 3.7%) with 1 µl of a 0.5 mM compound stock solution in DMSO. After vortexing the samples were incubated in a Thermomixer at 37°C for 0 and 6 hours. After incubation the samples were stored on ice until further treatment. All samples were prepared in duplicates.
A suitable internal standard was added to each sample (1 µl of a 0.5 mM stock solution in DMSO). Protein precipitation was performed using two different methods depending on the compound conditions as indicated in Table 13. • A) 250 µl of acetonitrile containing 1% trifluoroacetic acid was added. […]
Quantitation was performed by external matrix calibration with internal standard using the integrated analyte signals.
Additionally, recovery was determined by spiking a pure plasma sample that only contained the internal standard after treatment with a certain amount of the compound.
Carry-over was evaluated by analysis of a blank sample (20% acetonitrile) after the highest calibration sample.
The result is stated as "% intact compound remaining after 6 h incubation" and means that from the amount of material at the start of the experiment the stated percentage is detected as unchanged material at the end of the experiment by LC-MS quantification. […]

**Q.** With `CCCCOC(=O)N[C@H]1CSSC[C@@H](C(N)=O)NC(=O)[C@H](CCC)NC(=O)[C@H]([C@@H](C)CC)NC(=O)[C@@H]2C[C@@H](O)CN2C(=O)[C@@H]2C[C@H](F)CN2C(=O)[C@H](Cc2ccccc2)NC(=O)[C@H](Cc2ccc(C(N)=O)cc2)NC(=O)[C@H](CCCNC(=O)CN2CCN(CC(=O)O)CCN(CC(=O)O)CCN(CC(=O)O)CC2)NC(=O)[C@H]([C@@H](C)O)NC1=O` [UPAR-276, Butoc-[Cys-Thr-Orn(DOTA)-Pcnf-Phe-4Cfp-Hyp-Ile-Nva-Cys]-NHz] (Butoxycarbonyl-CT[Orn](DOTA)[Phe(4-CONH2)]F[Pro(cis-4-F)][Hyp]I[Nva]C-NH2; disulfide 1-10) as the molecule, how does the Kd [1] read?
**A.** < 1.58 nM

**Q.** What about the remaining at 6 h, 9.8 µM [2] of the same molecule?
**A.** 89%

**Q.** What about the remaining at 6 h, 9.8 µM [3] of the same molecule?
**A.** > 95%
